Measured values reported in patent publication US8722580B2, “Agent for inhibiting cytokinin signaling” (Sumitomo Chemical Company, Limited, priority 2006, dated 2014).

What was measured:
[1] = target: T1, cytokinin receptor CRE1 (Arabidopsis thaliana, UniProt Q9C5U0, S567G/T1018A); test: Inhibition of intracellular signaling from plant-derived cytokinin receptor, growth of transformed yeast cell TM182-CRE1; assay type: cell-based; conditions: trans-zeatin 0.6 ppm, chemical substance 2 ppm
T1 construct: expressed in transfected cells; host or cells: Saccharomyces cerevisiae TM182 (sln1Δ) transformed with p415CYC-CRE1
T1 sequence (Q9C5U0 24-1080 S567G/T1018A): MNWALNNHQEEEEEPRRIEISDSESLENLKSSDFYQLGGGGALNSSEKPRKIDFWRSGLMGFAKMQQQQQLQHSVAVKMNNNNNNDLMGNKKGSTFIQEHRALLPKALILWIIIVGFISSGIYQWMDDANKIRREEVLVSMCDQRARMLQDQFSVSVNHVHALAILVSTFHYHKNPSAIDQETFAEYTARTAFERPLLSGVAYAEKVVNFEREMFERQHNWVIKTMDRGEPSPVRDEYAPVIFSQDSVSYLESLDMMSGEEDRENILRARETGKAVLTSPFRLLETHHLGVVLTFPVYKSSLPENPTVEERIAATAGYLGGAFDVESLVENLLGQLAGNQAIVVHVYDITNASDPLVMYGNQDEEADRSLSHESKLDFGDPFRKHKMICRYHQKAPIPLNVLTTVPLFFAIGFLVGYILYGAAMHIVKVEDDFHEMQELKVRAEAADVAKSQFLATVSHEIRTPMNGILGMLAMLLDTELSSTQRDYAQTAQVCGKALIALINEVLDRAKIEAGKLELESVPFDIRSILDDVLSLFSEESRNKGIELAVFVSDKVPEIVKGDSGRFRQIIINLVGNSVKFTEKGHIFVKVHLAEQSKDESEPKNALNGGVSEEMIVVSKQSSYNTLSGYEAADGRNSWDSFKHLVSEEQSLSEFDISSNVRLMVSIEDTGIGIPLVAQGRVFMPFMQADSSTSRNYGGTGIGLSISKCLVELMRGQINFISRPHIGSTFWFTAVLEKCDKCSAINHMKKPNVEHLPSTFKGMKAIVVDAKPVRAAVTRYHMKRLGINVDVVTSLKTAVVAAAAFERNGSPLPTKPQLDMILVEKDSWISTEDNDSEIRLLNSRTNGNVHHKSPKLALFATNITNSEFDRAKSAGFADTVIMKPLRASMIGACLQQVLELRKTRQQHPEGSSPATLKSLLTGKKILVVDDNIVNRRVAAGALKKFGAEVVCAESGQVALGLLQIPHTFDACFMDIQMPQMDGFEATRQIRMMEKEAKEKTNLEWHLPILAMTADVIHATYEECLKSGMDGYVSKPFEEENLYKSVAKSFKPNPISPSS
How it was run: (§1)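 Relative growth % is derived from blank-corrected OD600 against DMSO wells after 24 h at 30° C, with inhibition given as 100 minus that value. Cells were set to OD600=0.1 with 0.6 ppm trans-zeatin and 2 ppm test substance: CRE1 strain in DOLU+Glu, p415CYC1 toxicity control in DOLU+Gal.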

[2] = test system: transformed cell TM182-p415CYC1; test: Control growth test with transformed yeast cell TM182-p415CYC1 (toxicity to yeast); assay type: cell-based; conditions: trans-zeatin 0.6 ppm; chemical substance 2 ppm; 30° C., 24 hours; turbidity OD 600
How it was run: as §1

[3] = test system: Arabidopsis thaliana; test: Root growth-promoting activity test (Example 9); assay type: in vivo; conditions: test final concentration 5 ppm (concentration with highest root growth rate); main root length vs control section, 22° C., 10 days
How it was run: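 Compounds at 0.001–10 ppm final (added in DMSO) were mixed into Enshi medium, and Arabidopsis thaliana seeds were cultured in it for 10 days at 22° C under light. Root growth rate (%) is the treated mean main-root length divided by the control mean, from eight repeats.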

[4] = test system: rice; test: Root growth-promoting activity using rice, soil drenching (Example 14); assay type: in vivo, Oriza sativa japonica Nipponbare; conditions: soil drenched with 10 ppm solution, 500 μl per well
Method: With respect to the chemical substance Ic3-3, a root growth promoting activity was measured using rice (Oriza sativa japonica Nipponbare).
First, an acetone solution containing a predetermined concentration of the chemical substance was prepared and then 100-fold diluted with distilled water to 10 ppm (containing 1% acetone) to obtain a chemical substance solution. Seeds were immersed in water for 2 days to stimulate germination. The seeds were sowed in a 288-well plug tray (3 seeds per well), and then soil was drenched with the above chemical substance solution in an amount of 500 μl per well. After covering with soil, the plug tray was put in a plastic bag and then placed in an air-conditioned room (dark place at 30° C.) for 3 days. After removing the plastic bag from the plug tray, the plug tray was placed under light conditions of light/dark=16 h/8 h for 4 days while the bottom was irrigated at all times. Thus, rice seeds were cultivated to obtain grown rice. The resulting rice roots were washed and the total root length was analyzed using a root length measurement image analyzer WinRHIZO (manufactured by Regent Instruments).

[5] = test system: rice; test: Rice stand establishment-promoting activity by seed treatment, direct seeding on flooded field (Example 20); assay type: in vivo, Oryza sativa japonica Nipponbare; conditions: for Stand establishment rate (%) on day 23 after sowing: Blank slurry 76.7
Method: (§2) Seeds of rice (Oryza sativa japonica Nipponbare) were treated with the chemical substance Ic3-1 (which inhibits intracellular signaling from a plant-derived cytokinin receptor of a cell) selected in Example 7, and were grown under direct seeding conditions. Then, a stand establishment rate was examined, and thus a rice stand establishment-promoting activity of the chemical substance was evaluated.
(§3) First, a Blank slurry solution containing 5% (v/v) Color Coat Red (manufactured by BECKER UNDERWOOD), 5% (v/v) CF-Clear (manufactured by BECKER UNDERWOOD) and 0.42% (v/v) Maxim-XL (manufactured by Syngenta) was prepared. In 1.3 ml of the Blank slurry solution, 6.25 mg, 12.5 mg, 25 mg or 50 mg of the chemical substance Ic3-3 was dissolved. Seeds were treated with the solution in an amount of 1.3 ml per 50 g of seeds (each corresponding to 0.125 mg, 0.25 mg, 0.5 mg and 1 mg/g seed) using a Hege11 seed treating device (manufactured by Hans-Ulrich Hege).
Then, a concrete pot (50 cm×50 cm) placed outdoors was flooded at a flooding depth of 5 cm, and 50 seeds per pot were sown. On day 23 after sowing, the number of seedlings whose leaf apex appeared on the water surface was examined. […] [Stand establishment rate (%)]=[Number of seedlings whose leaf apex appears on the water surface]/[Number of sown seeds]×100

[6] = test system: rice; test: Rice tillering-promoting activity by seed treatment, direct seeding on dry field (Example 21); assay type: in vivo, Oryza sativa japonica Nipponbare; conditions: seed treatment 0.25 mg/g seed; day 30 after sowing
Method: as §2, with “on dry field-conditions.” for “conditions.”, “the number of tillers” for “a stand establishment rate”, “tillering-promoting” for “rice stand establishment-promoting”
as §3, with “solution,” for “solution, 6.25 mg,”, “12.5” for “12.5 mg, 25 mg or 50”, “(corresponding” for “(each corresponding”, “to” for “to 0.125 mg,”, “0.25” for “0.25 mg, 0.5 mg and 1”
The, 20 seeds per pot of the treated seeds were sown in a 1/5000a Wagner pot at a depth of 1 cm and then cultured in a greenhouse. On day 10 after sowing, water was charged at a flooding depth of 5 cm and culture was continued. On day 30 after sowing, the number of tillers was examined.

Structure (SMILES): OCCCNc1nc(-c2ccccc2)c2cc(Cl)ccc2n1 [Ic3-3]
- Relative growth rate (%) in test section of test substance to control section, Transformed cell TM182-CRE1 ([1]; 30° C., 24 hours, turbidity OD 600): 1.4%
- Activity (%) of test substance for inhibiting intracellular signaling from plant-derived cytokinin receptor of cell ([1]; = 100 − relative growth rate of TM182-CRE1): 98.6%
- Relative growth rate (%) in test section of test substance to control section, Transformed cell TM182-p415CYC1 [2]: 108.6%
- Root growth-promoting activity (root growth rate) [3]: 163.4%
- root growth compared with the control section (UTC) [4]: root growth was remarkably promoted
- total root length (image analyzer WinRHIZO) [4]: an increase of the total root length
- Stand establishment rate (%) on day 23 after sowing ([5]; seed treatment 0.125 mg/g seed): 87.3%
- Stand establishment rate (%) on day 23 after sowing ([5]; seed treatment 0.25 mg/g seed): 82.7%
- Stand establishment rate (%) on day 23 after sowing ([5]; seed treatment 0.5 mg/g seed): 79.3%
- Stand establishment rate (%) on day 23 after sowing ([5]; seed treatment 1 mg/g seed): 84.0%
- stand establishment rate compared with the Blank slurry-treated section ([5]; seed treatment concentration 0.125 to 1 mg/g seed, day 23 after sowing): a stand establishment rate was increased
- number of tillers per stock compared with the Blank slurry-treated section [6]: the number of tillers per stock was increased
